Test results published in publication PMC9142856 (Heliyon, 2022).

Target: dipeptidyl peptidase-IV (DPP-IV) (Homo sapiens, UniProt P27487)
Experiment: in vitro enzyme inhibition assay, Gly-Pro-p-nitroanilide substrate
Format: biochemical

Sequence of dipeptidyl peptidase-IV (DPP-IV) (P27487 39-766): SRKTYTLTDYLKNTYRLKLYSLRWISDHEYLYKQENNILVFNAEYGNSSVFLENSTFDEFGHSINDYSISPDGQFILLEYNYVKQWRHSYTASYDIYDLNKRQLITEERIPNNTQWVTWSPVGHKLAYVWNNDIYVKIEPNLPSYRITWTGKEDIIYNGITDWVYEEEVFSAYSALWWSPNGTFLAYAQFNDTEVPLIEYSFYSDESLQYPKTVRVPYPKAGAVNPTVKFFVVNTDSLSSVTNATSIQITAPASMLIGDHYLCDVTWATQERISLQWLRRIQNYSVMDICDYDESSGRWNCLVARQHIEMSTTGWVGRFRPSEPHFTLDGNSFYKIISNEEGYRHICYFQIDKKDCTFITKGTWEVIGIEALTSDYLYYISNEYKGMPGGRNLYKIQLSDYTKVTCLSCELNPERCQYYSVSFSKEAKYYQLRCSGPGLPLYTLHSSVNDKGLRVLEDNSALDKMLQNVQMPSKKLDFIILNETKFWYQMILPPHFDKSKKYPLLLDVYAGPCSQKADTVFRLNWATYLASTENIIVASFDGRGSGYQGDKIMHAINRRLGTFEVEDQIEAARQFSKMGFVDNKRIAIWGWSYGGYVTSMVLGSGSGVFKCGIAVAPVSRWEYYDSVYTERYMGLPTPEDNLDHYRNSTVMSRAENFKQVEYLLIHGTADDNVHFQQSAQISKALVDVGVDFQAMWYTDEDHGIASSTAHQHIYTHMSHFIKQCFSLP

`CC(C)=CCC/C(C)=C/Cc1c(O)ccc(C(=O)/C=C/c2ccc(O)cc2)c1O` [XA, xanthoangelol] was tested, and the IC50 was 10.5 µM.
